Data reported in US7713994B2 (Wyeth LLC, priority 2005, dated 2010).
pIC50: −log10 of the molar value.

Target: T1, cyclin D1/cdk 4 enzyme (Homo sapiens, UniProt P11802)
T1 construct: made in house; host or cells: Sf9 insect cells, recombinant baculovirus
Experiment: CDK4 ELISA kinase assay (phospho-Rb ser 795 detection)
Format: biochemical
Details: In Vitro Enzyme Assay, cyclin D1/cdk 4, read-out: CDK4 IC50
Procedure: • 1. High-binding ELISA microtiter plates (Costar) were coated with 40 μl of the kinase substrate (GST fusion of C-terminal fragment of the retinoblastoma susceptibility gene product) diluted to 10 μg/ml in tris-buffered saline (TBS), overnight at 4° C. • 2. Non-specific binding sites were blocked for 1 hour at 4° C. with Superblock in TBS (Pierce), and the plates rinsed with water. • 3. For the screen, 1.5 μl of test compound (200 μg/ml stock in 20% DMSO/20 mM HEPES, pH 7.5) was added to each well. Final dose of the test compound in the assay was 10 ug/ml. […] The kinase reaction (30 μl) was dispensed into each well. Reactions contained 200 μM ATP, 0.5 mg/ml bovine serum albumin (BSA; Sigma), and 0.5 μl partially purified cyclin D1/cdk 4 enzyme*. The enzyme complex is expressed in insect cells (Sf9) infected with recombinant baculovirus and partially purified using ammonium sulfate fractionation. Reaction volumes were adjusted to 30 μl with kinase assay buffer (50 mM HEPES, pH 7.5, 10 mM MgCl2, 5% glycerol, 10 mM 2-mercaptoethanol). • *: For CDK2 assay, 1.0 μl cyclin E/CDK2 enzyme (diluted 1:1000 in kinase assay buffer) was used. The enzyme is isolated from insect cells (Sf9) infected with recombinant baculovirus and partially purified using ammonium sulfate fractionation. For CDK1 assay, 0.08 μl cyclin B/CDK1 enzyme [New England BioLabs; the enzyme is isolated from insect cells (Sf9) infected with recombinant baculovirus carrying human cdc 2 and human cyclin B] was used.
[…] • 5. Plates were incubated at 30° C. for 1 hour. • 6. The reaction mixture was removed by aspiration and replaced with 250 μl TBS containing 0.1% Tween-20 and 5% nonfat dry milk (blocking buffer). The plates were incubated at 4° C. for 1 hour. • 7. The blocking buffer was removed and replaced with 50 μl of the primary antibody [anti-phospho-Rb ser 795 (New England BioLabs) diluted 1:1000 in blocking buffer]. Incubation was at 4° C. for 16-20 hours. • 8. The wells were rinsed 3 times with 250 μl of TBS containing 0.1% Tween-20 followed by the addition of 50 μl of secondary antibody [anti-rabbit IgG conjugated to horseradish peroxidase (Amersham Life Science) diluted 1:1000 in blocking buffer]. • 9. After a 1 hour incubation at room temperature, the wells were rinsed 3 times with 250 μl of TBS/0.1% Tween 20. • 10. TMB (3,3′,5,5′-tetramethylbenzidine dihydrochloride) substrate solution (100 μl; Pierce) was added to each well and the color development reaction allowed to proceed 5-10 minutes at room temperature with shaking. The reaction was stopped by the addition of 2N sulfuric acid (100 μl) and the absorbance values read at 450 nm in a microplate reader (Molecular Devices). Analysis of Results: • 1. The percentage of the absorbance value in wells containing the test compound relative to control wells (no test agent) was determined. • 2. IC50 values of selected compounds were determined from inhibition curves, after subtracting background values (no substrate).

T1 sequence (P11802 whole entry, species assumed): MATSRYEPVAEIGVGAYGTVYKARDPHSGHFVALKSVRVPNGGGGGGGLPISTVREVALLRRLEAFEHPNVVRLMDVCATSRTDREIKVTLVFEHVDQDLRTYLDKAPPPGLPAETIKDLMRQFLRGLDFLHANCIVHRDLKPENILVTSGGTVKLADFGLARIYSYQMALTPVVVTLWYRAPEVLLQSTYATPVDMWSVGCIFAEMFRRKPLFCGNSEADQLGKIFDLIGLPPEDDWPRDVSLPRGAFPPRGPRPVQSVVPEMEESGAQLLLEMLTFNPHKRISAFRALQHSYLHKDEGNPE
T1 sequence (P24385 whole entry partner, species assumed): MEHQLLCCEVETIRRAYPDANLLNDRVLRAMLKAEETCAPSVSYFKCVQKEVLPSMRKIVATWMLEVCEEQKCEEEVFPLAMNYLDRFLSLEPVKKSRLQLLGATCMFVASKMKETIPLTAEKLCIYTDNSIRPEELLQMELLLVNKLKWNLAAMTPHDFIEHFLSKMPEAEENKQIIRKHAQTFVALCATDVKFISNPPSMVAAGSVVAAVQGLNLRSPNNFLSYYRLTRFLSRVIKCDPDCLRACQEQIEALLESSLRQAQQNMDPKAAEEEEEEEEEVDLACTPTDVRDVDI

Molecule | pIC50
CN1CCN(c2ccc(NC=C3C(=O)NC(=O)c4ccc(C=Cc5ccc(Cl)cc5)cc43)cc2)CC1 [Example 726, 6-[2-(4-Chloro-phenyl)-vinyl]-4-{[4-(4-methyl-piperazin-1-yl)-phenylamino]-methylene}-4H-isoquinoline-1,3-dione] | 4.77
CN1CCN(c2ccc(NC=C3C(=O)NC(=O)c4ccc(-c5ccc6c(c5)OCO6)cc43)cc2)CC1 [Example 806, 6-Benzo[1,3]dioxol-5-yl-4-{[4-(4-methyl-piperazin-1-yl)-phenylamino]-methylene}-4H-isoquinoline-1,3-dione] | 5.68
COc1ccc(NC=C2C(=O)NC(=O)c3ccccc32)cc1O [Example 561, 4-[(3-Hydroxy-4-methoxy-phenylamino)-methylene]-4H-isoquinoline-1,3-dione] | 4.34
O=C(O)C=Cc1ccc(NC=C2C(=O)NC(=O)c3ccccc32)cc1 [Example 557, 3-{4-[(1,3-Dioxo-2,3-dihydro-1H-isoquinolin-4-ylidenemethyl)-amino]-phenyl}-acrylic acid] | 4.71
NS(=O)(=O)c1ccc(CNC=C2C(=O)NC(=O)c3ccc(-c4ccc(C=CC(=O)O)cc4)cc32)cc1 [Example 759, 3-(4-{1,3-Dioxo-4-[(4-sulfamoyl-benzylamino)-methylene]-1,2,3,4-tetrahydro-isoquinolin-6-yl}-phenyl)-acrylic acid] | 5.77
CS(=O)(=O)Nc1cccc(CNC=C2C(=O)NC(=O)c3ccccc32)c1 [Example 581, N-(3-{[(1,3-Dioxo-2,3-dihydro-1H-isoquinolin-4-ylidenemethyl)-amino]-methyl}-phenyl)-methanesulfonamide] | 4.63
CN1CCN(c2ccc(NC=C3C(=O)NC(=O)c4ccc(-c5ccc(CCC(=O)O)cc5)cc43)cc2)CC1 [Example 809, 3-[4-(4-{[4-(4-Methyl-piperazin-1-yl)-phenylamino]-methylene}-1,3-dioxo-1,2,3,4-tetrahydro-isoquinolin-6-yl)-phenyl]-propionic acid] | 4.86
N#CCc1ccc(NC=C2C(=O)NC(=O)c3ccc(-c4cccc5cccnc45)cc32)cc1 [Example 625, {4-[(1,3-Dioxo-6-quinolin-8-yl-2,3-dihydro-1H-isoquinolin-4-ylidenemethyl)-amino]-phenyl}-acetonitrile] | 4.83
CN1CCN(c2ccc(NC=C3C(=O)NC(=O)c4ccc(-c5cc6ccccc6s5)cc43)cc2)CC1 [Example 670, 6-Benzo[b]thiophen-2-yl-4-{[4-(4-methyl-piperazin-1-yl)-phenylamino]-methylene}-4H-isoquinoline-1,3-dione] | 4.40
6-[2-(4-Fluoro-phenyl)-vinyl]-4-{[4-(4-methyl-piperazin-1-yl)-phenylamino]-methylene}-4H-isoquinoline-1,3-dione [Example 731] | 4.34
O=C1NC(=O)c2ccccc2C1=CNCc1ccc(NS(=O)(=O)c2cccs2)cc1 [Example 588, Thiophene-2-sulfonic acid (4-{[(1,3-dioxo-2,3-dihydro-1H-isoquinolin-4-ylidenemethyl)-amino]-methyl}-phenyl)-amide] | 4.43
CC(=O)c1ccc(-c2ccc3c(c2)C(=CNc2ccc(CC#N)cc2)C(=O)NC3=O)cc1 [Example 710, (4-{[6-(4-Acetyl-phenyl)-1,3-dioxo-2,3-dihydro-1H-isoquinolin-4-ylidenemethyl]-amino}-phenyl)-acetonitrile] | 4.55
O=C(O)CSc1ccc(NC=C2C(=O)NC(=O)c3ccccc32)cc1 [Example 548, {4-[(1,3-Dioxo-2,3-dihydro-1H-isoquinolin-4-ylidenemethyl)-amino]-phenylsulfanyl}-acetic acid] | 4.45
O=C1NC(=O)c2ccccc2C1=CNCc1cccc(NS(=O)(=O)c2cccs2)c1 [Example 579, Thiophene-2-sulfonic acid (3-{[(1,3-dioxo-2,3-dihydro-1H-isoquinolin-4-ylidenemethyl)-amino]-methyl}-phenyl)-amide] | 4.69
COc1ccc(NC=C2C(=O)NCc3cc(Br)ccc32)cc1O [Example 862, 7-Bromo-4-[(3-hydroxy-4-methoxy-phenylamino)-methylene]-1,4-dihydro-2H-isoquinolin-3-one] | 4.51
O=C1NC(=O)c2ccccc2C1=CNc1c(O)cccc1O [Example 565, 4-[(2,6-Dihydroxy-phenylamino)-methylene]-4H-isoquinoline-1,3-dione] | 4.42
N#CCc1ccc(NC=C2C(=O)NC(=O)c3ccc(-c4cccc(-c5ccccc5)c4)cc32)cc1 [Example 721, {4-[(6-Biphenyl-3-yl-1,3-dioxo-2,3-dihydro-1H-isoquinolin-4-ylidenemethyl)-amino]-phenyl}-acetonitrile] | 4.59
O=C(O)C(=O)Nc1ccc(NC=C2C(=O)NC(=O)c3ccccc32)cc1 [Example 546, N-{4-[(1,3-Dioxo-2,3-dihydro-1H-isoquinolin-4-ylidenemethyl)-amino]-phenyl}-oxalamic acid] | 4.70
CC(=O)c1ccccc1-c1ccc2c(c1)C(=CNCc1ccc(O)c(O)c1)C(=O)NC2=O [Example 777, 6-(2-Acetyl-phenyl)-4-[(3,4-dihydroxy-benzylamino)-methylene]-4H-isoquinoline-1,3-dione] | 5.42
CC(C)c1cccc(-c2ccc3c(c2)C(=CNCc2ccc(O)c(O)c2)C(=O)NC3=O)c1 [Example 791, 4-[(3,4-Dihydroxy-benzylamino)-methylene]-6-(3-isopropyl-phenyl)-4H-isoquinoline-1,3-dione] | 5.30
Cc1nc(NS(=O)(=O)c2ccc(NC=C3C(=O)NC(=O)c4ccccc43)cc2)oc1C [Example 553, N-(4,5-Dimethyl-oxazol-2-yl)-4-[(1,3-dioxo-2,3-dihydro-1H-isoquinolin-4-ylidenemethyl)-amino]-benzenesulfonamide] | 4.63
O=C1NC(=O)c2ccccc2C1=CNc1ccc(CNS(=O)(=O)CC(F)(F)F)cc1 [Example 605, 2,2,2-Trifluoro-ethanesulfonic acid 4-[(1,3-dioxo-2,3-dihydro-1H-isoquinolin-4-ylidenemethyl)-amino]-benzylamide] | 4.66
O=C1NC(=O)c2ccc(-c3cccc4ccccc34)cc2C1=CNCc1ccc(O)c(O)c1 [Example 640, 4-[(3,4-Dihydroxy-benzylamino)-methylene]-6-naphthalen-1-yl-4H-isoquinoline-1,3-dione] | 4.66
CC(C#N)=C(C)c1ccc2c(c1)C(=CNc1ccc(N3CCN(C)CC3)cc1)C(=O)NC2=O [Example 802, 2-Methyl-3-(4-{[4-(4-methyl-piperazin-1-yl)-phenylamino]-methylene}-1,3-dioxo-1,2,3,4-tetrahydro-isoquinolin-6-yl)-but-2-enenitrile] | 4.82
CN1CCN(c2ccc(NC=C3C(=O)NC(=O)c4ccc(C=CCCO)cc43)cc2)CC1 [Example 796, 6-(4-Hydroxy-but-1-enyl)-4-{[4-(4-methyl-piperazin-1-yl)-phenylamino]-methylene}-4H-isoquinoline-1,3-dione] | 5.64
CC(=O)c1ccccc1-c1ccc2c(c1)C(=CNCc1ccc(S(N)(=O)=O)cc1)C(=O)NC2=O [Example 748, 4-({[6-(2-Acetyl-phenyl)-1,3-dioxo-2,3-dihydro-1H-isoquinolin-4-ylidenemethyl]-amino}-methyl)-benzenesulfonamide] | 4.34
